The record followed here is patent US8969325B2, “TRPV1 antagonists” (AbbVie Inc., priority 2011, dated 2015).

The target of assay [1] is T1, human TRPV1 (Homo sapiens (Human), UniProt Q8NER1). Nature of the assay: Acid Activation Assay (pH 5.0, intracellular Ca2+, FLIPR). The settings on record: percentage of the maximal pH 5.0-induced response remaining; recombinant HEK293 hTRPV1 cells; maximum concentration tested 37.5 μM. It counts as cell-based. Summed up:
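HEK293 cells stably expressing recombinant hTRPV1, loaded with Calcium-4 dye 90-120 min at 25° C. Compounds added over a 12-point half-log range (top 37.5 μM), then pH 5.0 DPBS/MES challenge after 3 min; FLIPR peak fluorescence over baseline given as % of maximal pH 5.0 response.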

In assay [2] the test system is rats. Put plainly: Sodium iodoacetate-induced knee joint osteoarthritic pain model (hind limb grip force). In kind it is in vivo. The settings on record: rat, po, single acute dose, 1 hour after administration, 20 days after sodium iodoacetate, read-out: % effect (% return to normalcy of hind limb grip force). As to the method:
Unilateral knee joint osteoarthritis was induced in the rats by a single intra-articular (i.a.) injection of sodium iodoacetate (3 mg in 0.05 mL sterile isotonic saline) into the right knee joint cavity under light isoflurane anesthesia using a 26 G needle. […] Pain behavioral assessment of hind limb grip force was conducted by recording the maximum compressive force exerted on the hind limb strain gauge setup, in a commercially available grip force measurement system (Columbus Instruments, Columbus, Ohio). The grip force data was converted to a maximum hindlimb cumulative compressive force (CFmax) (gram force)/kg body weight for each animal. The analgesic effects of test compounds were determined 20 days following the i.a. injection of sodium iodoacetate. The vehicle control group for each compound being tested was assigned 0% whereas the age matched naïve group was assigned as being 100% (normal). The % effect for each dose group was then expressed as % return to normalcy compared to the naïve group. Test compounds were administered orally in 10% ethanol/20% Tween 80/70% polyethylene glycol-400 vehicle at a volume of 2 mL/kg. The assessment of the analgesic effects of test compounds was made 1 hour following oral administration. The assessment of the analgesic effects of test compounds can be made following a single dose or following repeated administration wherein the frequency of dosing is 1 to 2 times daily. The duration of such repeated daily dosing may last for any time greater than one day. A typical duration of repeated daily dosing is about 5 days to about 12 days.

The target in assay [3] is T1, human TRPV1. Put plainly: Capsaicin Activation Assay (intracellular Ca2+, FLIPR). In kind it is cell-based. The conditions noted are these: recombinant HEK293 cells expressing hTRPV1, 50 nM capsaicin. An outline of the steps: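 Stably transfected HEK293 cells expressing human TRPV1 cDNA, plated the day before in poly-D-lysine plates. Compounds serially diluted from 10 mM DMSO stocks; intracellular Ca2+ fluorescence read on FLIPR at 1 to 5 second intervals.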

The subject of assay [4] is rats. Put plainly: Rat acute capsaicin-induced flinching behavior. It counts as in vivo. The settings on record: 1 h, oral dose given as 100 nmol/kg, capsaicin 2.5 μg into hind paw one hour after compound, five minute observation, relative to control-treated animals, read-out: % effect (percent reduction in the number of flinching behaviors). On the procedure: Rats were placed in individual observation cages. Following an acclimation period of 30 minutes, selected compounds were administered orally at a dose of 100 nmol/kg in a vehicle (10% ethanol/20% Tween 80/70% polyethylene glycol-400) at a volume of 2 mL/kg. One hour after administration of the compound, 2.5 μg of capsaicin in a 10 μL solution of 10% ethanol/90% hydroxypropyl-β-cyclodextrin was injected subcutaneously into the dorsal aspect of the right hind paw. The observation cage was then suspended above mirrors in order to facilitate observation. […] The number of flinching behaviors of the injured paw was recorded during the five minute observation period (Gilchrist, H. D.; Allard, B. L.; Simone, D. A.; Enhanced withdrawal responses to heat and mechanical stimuli following intraplantar injection of capsaicin in rats. Pain, 1996, 67, 179-188). The percent reduction in the number of flinching behaviors produced from oral administration of the test compounds relative to control-treated animals (% effect) is reported in Table 2.

pIC50: −log10 of the molar value.

T1 sequence (Q8NER1 whole entry): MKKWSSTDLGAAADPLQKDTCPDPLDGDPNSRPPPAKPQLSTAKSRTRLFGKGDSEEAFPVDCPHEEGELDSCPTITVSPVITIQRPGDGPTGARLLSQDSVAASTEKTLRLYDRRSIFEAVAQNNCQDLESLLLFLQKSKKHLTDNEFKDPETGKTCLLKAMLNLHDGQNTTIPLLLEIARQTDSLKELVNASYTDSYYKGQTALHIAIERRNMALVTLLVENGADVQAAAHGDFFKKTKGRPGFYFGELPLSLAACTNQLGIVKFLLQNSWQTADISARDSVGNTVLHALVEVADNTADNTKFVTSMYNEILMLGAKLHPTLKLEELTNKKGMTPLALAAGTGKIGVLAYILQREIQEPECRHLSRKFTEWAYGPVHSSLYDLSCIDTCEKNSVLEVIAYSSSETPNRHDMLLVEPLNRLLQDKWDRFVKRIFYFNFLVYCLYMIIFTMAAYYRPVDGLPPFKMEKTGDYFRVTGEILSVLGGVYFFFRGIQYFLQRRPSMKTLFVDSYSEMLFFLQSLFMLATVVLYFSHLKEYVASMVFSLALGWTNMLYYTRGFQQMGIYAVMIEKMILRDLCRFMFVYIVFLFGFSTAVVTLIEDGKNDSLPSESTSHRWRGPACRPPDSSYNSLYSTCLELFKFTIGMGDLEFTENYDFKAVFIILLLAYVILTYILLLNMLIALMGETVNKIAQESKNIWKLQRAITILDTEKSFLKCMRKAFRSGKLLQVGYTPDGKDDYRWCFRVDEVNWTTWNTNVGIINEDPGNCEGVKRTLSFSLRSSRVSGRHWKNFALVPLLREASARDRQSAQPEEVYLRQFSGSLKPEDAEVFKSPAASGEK

For the molecule `CN1C(=O)NCc2c(NC(=O)N[C@@H]3CC(CF)(CF)Oc4cc(Cl)ccc43)cccc21` [Example 2, 1-[(4R)-7-chloro-2,2-bis(fluoromethyl)-3,4-dihydro-2H-chromen-4-yl]-3-(1-methyl-2-oxo-1,2,3,4-tetrahydroquinazolin-5-yl)urea], the “human TRPV1 H^+ (max % remain)” value on human TRPV1 [1] is given as 21%. The inhibition in vivo at 14 mg/kg in the assay with rats [2] (14 mg/kg) stood at 36%. Further, the pIC50 (usually the IC50 on a negative log10 scale, so that one unit is a factor of ten) on human TRPV1 [3] is 7.44.

Consider `CN1C(=O)NCc2c(NC(=O)N[C@@H]3C[C@@](C)(C(F)F)Oc4ccccc43)cccc21` [Example 13, 1-[(2S,4R)-2-(difluoromethyl)-2-methyl-3,4-dihydro-2H-chromen-4-yl]-3-(1-methyl-2-oxo-1,2,3,4-tetrahydroquinazolin-5-yl)urea], for which the “human TRPV1 H^+ (max % remain)” value at human TRPV1 [1] worked out at 41%. Further, the inhibition in vivo at 12 mg/kg in the assay on rats [2] (12 mg/kg) came to 63%. Moreover, on human TRPV1 [3], the negative logarithm of the IC50 (pIC50) is 7.28.

`CN1Cc2ccc(NC(=O)N[C@@H]3CCc4cc(Cl)ccc43)cc2NC1=O` [Example 17, 1-[(1R)-5-chloro-2,3-dihydro-1H-inden-1-yl]-3-(3-methyl-2-oxo-1,2,3,4-tetrahydroquinazolin-7-yl)urea]: the “human TRPV1 H^+ (max % remain)” value on human TRPV1 [1] worked out at 54%. Also, on human TRPV1 [3], the negative logarithm of the IC50 (pIC50) was 7.15. Further, the inhibition in vivo at 0.1 µmol/kg in the assay on rats [4] came out at 83%.

With `Cn1c(=O)ccc2c(NC(=O)N[C@@H]3CC(C)(C)Oc4cc(F)ccc43)cccc21` [Example 19, 1-[(4R)-7-fluoro-2,2-dimethyl-3,4-dihydro-2H-chromen-4-yl]-3-(1-methyl-2-oxo-1,2-dihydroquinolin-5-yl)urea], the “human TRPV1 H^+ (max % remain)” value on human TRPV1 [1] came to 38%. Further, in the assay with rats [4], the inhibition in vivo at 0.1 µmol/kg was 90%.

On to `Cn1c(=O)ccc2c(NC(=O)N[C@@H]3CC(C)(C)Oc4ccc(F)cc43)cccc21` [Example 24, 1-[(4R)-6-fluoro-2,2-dimethyl-3,4-dihydro-2H-chromen-4-yl]-3-(1-methyl-2-oxo-1,2-dihydroquinolin-5-yl)urea], for which the “human TRPV1 H^+ (max % remain)” value on human TRPV1 [1] stood at 60%. Further, the negative-log IC50 (pIC50) at human TRPV1 [3] is 7.68. Further, the inhibition in vivo at 0.1 µmol/kg with rats [4] turned out to be 58%.

For the molecule `Cn1c(=O)ccc2c(NC(=O)N[C@@H]3CC(CF)(CF)Oc4cc(F)ccc43)cccc21` [Example 27, 1-[(4R)-7-fluoro-2,2-bis(fluoromethyl)-3,4-dihydro-2H-chromen-4-yl]-3-(1-methyl-2-oxo-1,2-dihydroquinolin-5-yl)urea], the “human TRPV1 H^+ (max % remain)” value at human TRPV1 [1] is 42%. Also, the pIC50 at human TRPV1 [3] was 7.68. The inhibition in vivo at 0.1 µmol/kg in the assay on rats [4] came to 33%.

Consider `Cn1c(=O)ccc2c(NC(=O)N[C@@H]3C[C@](C)(C(F)F)Oc4ccccc43)cccc21` [Example 28, 1-[(2R,4R)-2-(difluoromethyl)-2-methyl-3,4-dihydro-2H-chromen-4-yl]-3-(1-methyl-2-oxo-1,2-dihydroquinolin-5-yl)urea], for which, on human TRPV1 [1], the “human TRPV1 H^+ (max % remain)” value turned out to be 53%. Besides, at human TRPV1 [3], the pIC50 was 7.92. The inhibition in vivo at 0.1 µmol/kg with rats [4] turned out to be 81%.

Consider `O=C1CCc2ccc(NC(=O)N[C@@H]3CC(CF)(CF)Oc4cc(Cl)ccc43)cc2N1` [Example 31, 1-[(4R)-7-chloro-2,2-bis(fluoromethyl)-3,4-dihydro-2H-chromen-4-yl]-3-(2-oxo-1,2,3,4-tetrahydroquinolin-7-yl)urea], for which the “human TRPV1 H^+ (max % remain)” value at human TRPV1 [1] amounted to 36%. Also, the inhibition in vivo at 10 mg/kg in the assay on rats [2] stood at 24%.

As to `CC1(C)C[C@@H](NC(=O)Nc2ccc3c(c2)NC(=O)CC3)c2ccc(C(F)(F)F)cc2O1` [Example 32, 1-[(4R)-2,2-dimethyl-7-(trifluoromethyl)-3,4-dihydro-2H-chromen-4-yl]-3-(2-oxo-1,2,3,4-tetrahydroquinolin-7-yl)urea], the “human TRPV1 H^+ (max % remain)” value at human TRPV1 [1] was determined as 37%. Moreover, in the assay with rats [2], the inhibition in vivo at 10 mg/kg was 22%. Besides, at human TRPV1 [3], the pIC50 is 7.44.

With `C[C@]1(C(F)(F)F)C[C@@H](NC(=O)Nc2ccc3c(c2)NC(=O)CC3)c2ccccc2O1` [Example 34, 1-[(2R,4R)-2-methyl-2-(trifluoromethyl)-3,4-dihydro-2H-chromen-4-yl]-3-(2-oxo-1,2,3,4-tetrahydroquinolin-7-yl)urea], the “human TRPV1 H^+ (max % remain)” value on human TRPV1 [1] is 34%. The inhibition in vivo at 10 mg/kg in the assay with rats [2] was 46%. On human TRPV1 [3], the pIC50 is 8.15.

`O=C1CCc2ccc(NC(=O)N[C@@H]3CCc4cc(C(F)(F)F)ccc43)cc2N1` [Example 35, 1-(2-oxo-1,2,3,4-tetrahydroquinolin-7-yl)-3-[(1R)-5-(trifluoromethyl)-2,3-dihydro-1H-inden-1-yl]urea]: the “human TRPV1 H^+ (max % remain)” value at human TRPV1 [1] turned out to be 38%. Further, the inhibition in vivo at 10 mg/kg in the assay with rats [2] worked out at 42%. Moreover, the negative-log IC50 (pIC50) at human TRPV1 [3] was 8.40.

As for `CN1C(=O)CCc2ccc(NC(=O)N[C@@H]3CCc4cc(C(F)(F)F)ccc43)cc21` [Example 36, 1-(1-methyl-2-oxo-1,2,3,4-tetrahydroquinolin-7-yl)-3-[(1R)-5-(trifluoromethyl)-2,3-dihydro-1H-inden-1-yl]urea], on human TRPV1 [1], the “human TRPV1 H^+ (max % remain)” value stood at 66%. Further, the pIC50 on human TRPV1 [3] is 7.47. Also, the inhibition in vivo at 0.1 µmol/kg in the assay on rats [4] is 60%.

On to `CC1(C)C[C@@H](NC(=O)Nc2ccc3c(c2)NC(=O)CC3)c2ccc(Cl)c(F)c2O1` [Example 39, 1-[(4R)-7-chloro-8-fluoro-2,2-dimethyl-3,4-dihydro-2H-chromen-4-yl]-3-(2-oxo-1,2,3,4-tetrahydroquinolin-7-yl)urea], for which, at human TRPV1 [1], the “human TRPV1 H^+ (max % remain)” value came to 34%. In the assay on rats [2], the inhibition in vivo at 10 mg/kg is 50%. In addition, the pIC50 on human TRPV1 [3] was 7.85.

For the molecule `CC1(C)C[C@@H](NC(=O)Nc2ccc3c(c2)NC(=O)CC3)c2ccc(F)cc2O1` [Example 221, 1-[(4R)-7-fluoro-2,2-dimethyl-3,4-dihydro-2H-chromen-4-yl]-3-(2-oxo-1,2,3,4-tetrahydroquinolin-7-yl)urea], the “human TRPV1 H^+ (max % remain)” value at human TRPV1 [1] came out at 39%. Also, the pIC50 at human TRPV1 [3] is 5.80. Besides, the inhibition in vivo at 0.1 µmol/kg in the assay on rats [4] is 53%.

As for `CCC1(CC)C[C@@H](NC(=O)Nc2ccc3c(c2)NC(=O)CC3)c2cccc(F)c2O1` [Example 222, 1-[(4R)-2,2-diethyl-8-fluoro-3,4-dihydro-2H-chromen-4-yl]-3-(2-oxo-1,2,3,4-tetrahydroquinolin-7-yl)urea], at human TRPV1 [1], the “human TRPV1 H^+ (max % remain)” value came to 30%. In addition, the inhibition in vivo at 10 mg/kg in the assay with rats [2] was 26%. In addition, the negative logarithm of the IC50 (pIC50) on human TRPV1 [3] was 7.49.

With `O=C1CCc2ccc(NC(=O)N[C@@H]3CCc4cc(Cl)ccc43)cc2N1` [Example 251, 1-[(1R)-5-chloro-2,3-dihydro-1H-inden-1-yl]-3-(2-oxo-1,2,3,4-tetrahydroquinolin-7-yl)urea], at human TRPV1 [1], the “human TRPV1 H^+ (max % remain)” value is given as 26%. In the assay on rats [2], the inhibition in vivo at 10 mg/kg was found to be 38%. Also, the pIC50 on human TRPV1 [3] is 7.11.

Turning to `C[C@]1(C(F)F)C[C@@H](NC(=O)Nc2ccc3c(c2)NC(=O)CO3)c2ccc(Cl)cc2O1` [Example 321, 1-[(2R,4R)-7-chloro-2-(difluoromethyl)-2-methyl-3,4-dihydro-2H-chromen-4-yl]-3-(3-oxo-3,4-dihydro-2H-1,4-benzoxazin-6-yl)urea], the “human TRPV1 H^+ (max % remain)” value at human TRPV1 [1] is 87%. In the assay on rats [2], the inhibition in vivo at 10 mg/kg amounted to 31%. Moreover, the pIC50 at human TRPV1 [3] is 7.68.

For `O=C1COc2ccc(NC(=O)N[C@@H]3CC(CF)(CF)Oc4cc(C(F)(F)F)ccc43)cc2N1` [Example 324, 1-[(4R)-2,2-bis(fluoromethyl)-7-(trifluoromethyl)-3,4-dihydro-2H-chromen-4-yl]-3-(3-oxo-3,4-dihydro-2H-1,4-benzoxazin-6-yl)urea], the “human TRPV1 H^+ (max % remain)” value at human TRPV1 [1] was found to be 96%. For the same molecule, the inhibition in vivo at 10 mg/kg with rats [2] stood at 67%. The negative logarithm of the IC50 (pIC50) at human TRPV1 [3] is 7.72.
